Test results from PubChem BioAssay AID2060487 (Molecular Pharmacology Branch, DTP, NCI, 2025).
Where “and” joins values, the source holds several entries; their conditions need not be identical. Equal values may be shown once. Each block holds one compound with its values, some of them ahead of it.

Tested on: 997537-175-T-J1-PDC complex spheroid viability
Assay: Anticancer human tumor 997537-175-T-J1-PDC patient-derived colon adenocarcinoma cell line growth inhibition [GQUAD]
Conditions: for viability, T/C: stronger effect = lower value
Source text: DNA G-quadruplex Stabilizer Agents in Combinations in Complex Spheroids
A high-throughput screen of multi-cell type tumor spheroids was designed to identify active combinations of DNA G-quadruplex stabilizer agents and targeted small molecules. Complex spheroids include a stromal component modeled by human endothelial cells (HUVEC) and fibroblasts modeled by human mesenchymal stem cells (MSCs). The concentration ranges selected for each drug and investigational agent were based upon clinically achievable concentrations if the clinical Cmax of the agent was known.
Compounds. The drugs and investigational agents: pidnarulex (CX-5461; NSC782164), APTO-253 (NSC789042), BRACO-19 (NSC847499), peposertib (NSC802822), ceralasertib (NSC780249), elimusertib (NSC800525), camonsertib (NSC841442), AZD-1390 (NSC803789), olaparib (NSC753686), talazoparib (NSC767125), ART-558 (NSC835418), sotorasib (NSC818433), MRTX-1133 (NSC836407), SN-38 (NSC673596), topotecan (NSC609699), etoposide (NSC141540), doxorubicin (NSC123127), gemcitabine (NSC613327), 5-fluorouracil (NSC19893), paclitaxel (NSC125973), vemurafenib (NSC761431), panobinostat (NSC761190), R-306465 (JNJ-16241199; NSC773264), adavosertib (NSC754352), TP-3654 (NSC805149), carboplatin (NSC241240), KSQ-4279 (NSC840948), and staurosporine (NSC755774) were obtained from the National Cancer Institute (NCI) Developmental Therapeutics Program Chemical Repository (34). The FDA-approved anticancer drug set is available from the NCI Developmental Therapeutics Program. […] The stock solutions were prepared in dimethyl sulfoxide (DMSO, Sigma-Aldrich, St. Louis, MO, cat. D2650) at 800-fold the tested concentration and stored at -70 degrees C prior to their use. All drugs and investigational agents were tested over a range starting from a high concentration at or near the clinical Cmax and decreasing in half-log increments. If the clinical Cmax for an agent had not been determined, the highest concentration tested was 10 microM.
2.3 Cell Culture. All cells were maintained in an incubator at 37 degrees C and 5% CO2 with 95% humidity. The PDC lines were cultured according to standard operating procedures established by the NCI PDMR. All PDCs were thawed and cultured in Matrigel-coated flasks prepared with a working solution of 1X Ham's F-12 nutrient mix, without supplementation (Invitrogen, cat. 11765054), 100 U/mL penicillin-streptomycin (Invitrogen, cat. 15140122), and 2.5% Matrigel (Corning Inc., cat. 354248) for the first three passages. The 857933-349-R-J2-PDC line was cultured in 6C/Colon 1B media, which includes advanced DMEM/F-12 (Thermo Fisher Scientific, cat. 12634028), 10 mM HEPES (Thermo Fisher Scientific, cat. 15630080), 1X GlutaMAX supplement (Thermo Fisher Scientific, cat. 35050061), 0.1 mg/mL primocin (InvivoGen, cat. ant-pm-2), 10% defined fetal bovine serum, heat inactivated (HyClone Laboratories Inc., cat. SH30070.03HI), 50% L-WRN conditioned media (ATCC, cat. CRL-3276), 1.25 mM N-Acetyl-L-cysteine (Sigma-Aldrich, cat. A9165), 10 mM nicotinamide (Sigma-Aldrich, cat. N0636), 1X B-27 supplement (Thermo Fisher Scientific, cat. 17504044), 1X N-2 supplement (Thermo Fisher Scientific, cat. 17502048), 10 microM Y-27632 dihydrochloride (Tocris Bioscience, cat. 1254), and 50 ng/mL human EGF recombinant protein (Thermo Fisher Scientific, cat. PHG0311). The 485176-168-R4-J1-PDC line was cultured in Panc media, which includes all 6C/Colon 1B media components plus 100 ng/mL human FGF-10 (Thermo Fisher Scientific, cat. 100-26), 500 nM SB-431542 (Selleckchem, cat. S1067), and gastrin (Tocris, cat. 3006).
[…]
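Also: spheroids exposed to the agents for 7 days.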
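For viability, T/C in this document: 100% = DMSO vehicle control viability.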

IC50 (curve of first compound, second compound 0.0316 µM): > 316 nM
IC50 (curve of first compound, second compound 0.1 µM): > 316 nM
IC50 (curve of first compound, second compound 0.316 µM): > 316 nM
IC50 (curve of first compound, second compound 1 µM): > 316 nM
IC50 (curve of first compound, second compound 3.16 µM): > 316 nM
IC50 (curve of first compound, second compound 10 µM): > 316 nM
SMILES: CC[C@@]1(O)C(=O)OCc2c1cc1n(c2=O)Cc2cc3c(CN(C)C)c(O)ccc3nc2-1 + Cc1cnc(CNC(=O)c2c(=O)c3ccc(N4CCCN(C)CC4)nc3n3c2sc2ccccc23)cn1
viability, T/C (second compound 0.0316 µM, first compound 0.000999 µM): 108%
viability, T/C (second compound 0.0316 µM, first compound 0.00316 µM): 104%
viability, T/C (second compound 0.0316 µM, first compound 0.00999 µM): 97.8%
viability, T/C (second compound 0.0316 µM, first compound 0.0316 µM): 82%
viability, T/C (second compound 0.0316 µM, first compound 0.0999 µM): 72.3%
viability, T/C (second compound 0.0316 µM, first compound 0.316 µM): 80.4%
viability, T/C (second compound 0.1 µM, first compound 0.000999 µM): 97.8%
viability, T/C (second compound 0.1 µM, first compound 0.00316 µM): 97.5%
viability, T/C (second compound 0.1 µM, first compound 0.00999 µM): 92.7%
viability, T/C (second compound 0.1 µM, first compound 0.0316 µM): 90.1%
viability, T/C (second compound 0.1 µM, first compound 0.0999 µM): 97.5%
viability, T/C (second compound 0.1 µM, first compound 0.316 µM): 58%
viability, T/C (second compound 0.316 µM, first compound 0.000999 µM): 92.8%
viability, T/C (second compound 0.316 µM, first compound 0.00316 µM): 88.8%
viability, T/C (second compound 0.316 µM, first compound 0.00999 µM): 105%
viability, T/C (second compound 0.316 µM, first compound 0.0316 µM): 85%
viability, T/C (second compound 0.316 µM, first compound 0.0999 µM): 98.8%
viability, T/C (second compound 0.316 µM, first compound 0.316 µM): 66.3%
viability, T/C (second compound 1 µM, first compound 0.000999 µM): 89.8%
viability, T/C (second compound 1 µM, first compound 0.00316 µM): 93.5%
viability, T/C (second compound 1 µM, first compound 0.00999 µM): 101%
viability, T/C (second compound 1 µM, first compound 0.0316 µM): 93.5%
viability, T/C (second compound 1 µM, first compound 0.0999 µM): 108%
viability, T/C (second compound 1 µM, first compound 0.316 µM): 59%
viability, T/C (second compound 3.16 µM, first compound 0.000999 µM): 75%
viability, T/C (second compound 3.16 µM, first compound 0.00316 µM): 104%
viability, T/C (second compound 3.16 µM, first compound 0.00999 µM): 118%
viability, T/C (second compound 3.16 µM, first compound 0.0316 µM): 89.7%
viability, T/C (second compound 3.16 µM, first compound 0.0999 µM): 96.1%
viability, T/C (second compound 3.16 µM, first compound 0.316 µM): 58.8%
viability, T/C (second compound 10 µM, first compound 0.000999 µM): 97.7%
viability, T/C (second compound 10 µM, first compound 0.00316 µM): 108%
viability, T/C (second compound 10 µM, first compound 0.00999 µM): 130%
viability, T/C (second compound 10 µM, first compound 0.0316 µM): 69%
viability, T/C (second compound 10 µM, first compound 0.0999 µM): 94.5%
viability, T/C (second compound 10 µM, first compound 0.316 µM): 70.2%

IC50 (curve of compound): > 10000 nM and 7160 nM and 5500 nM
SMILES: COc1cccc2c1C(=O)c1c(O)c3c(c(O)c1C2=O)CC(O)(C(=O)CO)CC3OC1CC(N)C(O)C(C)O1 (configuration not stated)
viability, T/C (compound 0.0316 µM): 98.9% and 107% and 104%
viability, T/C (compound 0.1 µM): 95.5% and 101% and 75.2%
viability, T/C (compound 0.316 µM): 92.8% and 91.6% and 89.9%
viability, T/C (compound 1 µM): 99.9% and 88.3% and 107%
viability, T/C (compound 3.16 µM): 76.1% and 72.2% and 74.3%
viability, T/C (compound 10 µM): 51.4% and 40.7% and 23.7%

IC50 (curve of compound): > 316 nM
SMILES: Cn1ncnc1[C@H]1c2n[nH]c(=O)c3cc(F)cc(c23)N[C@@H]1c1ccc(F)cc1
viability, T/C (compound 0.000999 µM): 91.9% and 91.2% and 104%
viability, T/C (compound 0.00316 µM): 89.7% and 92.9% and 86%
viability, T/C (compound 0.00999 µM): 107% and 90.8% and 92.9%
viability, T/C (compound 0.0316 µM): 72.1% and 87.1% and 89.7%
viability, T/C (compound 0.0999 µM): 90.8% and 64% and 84%
viability, T/C (compound 0.316 µM): 85.8% and 73.8% and 89%

SMILES: CC(=O)O[C@H]1C(=O)[C@@]2(C)[C@H]([C@H](OC(=O)c3ccccc3)[C@]3(O)C[C@H](OC(=O)[C@H](O)[C@@H](NC(=O)c4ccccc4)c4ccccc4)C(C)=C1C3(C)C)[C@]1(OC(C)=O)CO[C@@H]1C[C@@H]2O
viability, T/C (compound 0.0316 µM): 104% and 77.3% and 50.1%
viability, T/C (compound 0.1 µM): 92.5% and 40.4% and 45.4%
viability, T/C (compound 0.316 µM): 91.8% and 22.7% and 36.3%
viability, T/C (compound 1 µM): 74.7% and 34.4% and 39.1%
viability, T/C (compound 3.16 µM): 53.2% and 23.9% and 28.3%
viability, T/C (compound 10 µM): 0.36% and 20.5% and 22%
